This is an account of results in publication PMC6600671, “Design and Synthesis of Indoleamine 2,3-Dioxygenase 1 Inhibitors and Evaluation of Their Use as Anti-Tumor Agents” (Molecules, 2019).

One assay concerns MCF7. Nature of the assay: Cell viability MTT assay, 72 h. The class given is cell-based. The settings on record: Homo sapiens; for inhibition at 50 µM: shown when calculated IC50 >50 μM, read-out: MCF7 inhibition rate (%) at 50 μM. As to the method: (§1) B16-F10 mouse melanoma cells, NCI-H460 human lung cancer cell line and MCF7 were obtained from American Type Culture Collection (ATCC). All the cell lines were cultured with Dulbecco’ modified Eagle’s medium (DMEM) (Invitrogen Corporation, Waltham, MA, USA) supplemented with 10% fetal bovine serum (FBS) (Hyclone, Waltham, MA, USA) and 1% penicillin streptomycin (Invitrogen) at 37 °C in 5% CO2.
(§2) The in vitro inhibitory effects of the compounds were measured by MTT assay. Briefly, different kinds of cells were plated in 96-well plates at a density of 2000/well. After attachment for overnight at 37 °C, the cells were treated with the compounds at various concentrations. After 72 h culture, the MTT reagent was added to each well, and plates were incubated for another 4 h at 37 °C. Then, the blue-purple crystal formamidine was dissolved in DMSO after discarding the supernatant. Samples were measured using microplate reader at a wavelength of 570 nm (Biotek Instruments, Inc., Winooski, VT, USA). IC50 values were calculated with GraphPad Prism 8.0 software.

Assay [1] has as its system NCI-H460 human lung cancer cell line. Nature of the assay: Cell viability MTT assay, 72 h. The class given is cell-based. The settings on record: for inhibition at 50 µM: shown when calculated IC50 >50 μM, read-out: H460 inhibition rate (%) at 50 μM. The method, then: as §1, §2
Another assay addresses rhIDO1 (Homo sapiens, UniProt P14902). Description: Enzyme-based IDO1 activity assay (kynurenine absorbance at 492 nm). The class given is biochemical. The note with it: for inhibition at 50 µM: shown when calculated IC50 >50 μM, read-out: IDO inhibition rate (%) at 50 μM; for IC50: rhIDO1 0.05 μM, 37 °C, 45 min, read-out: IDO IC50. As to the method: (§3) The compounds on IDO1 or TDO activity were determined as follows: A standard reaction mixture (100 μL) containing 100 mM potassium phosphate buffer (pH 6.5), 40 mM ascorbic acid (neutralized with NaOH), 200 μg/mL catalase, 20 μM methylene blue and 0.05 μM rhIDO1 or rhTDO was added to the solution containing the substrate L-tryptophan and the test sample at a determined concentration. […] The yellow pigment derived from kynurenine was measured at 492 nm using a SYNERGY-H1 microplate reader (Biotek Instruments, Inc., Winooski, VT, USA). IC50 was analyzed using the GraphPad Prism 8.0 software (GraphPad Software, San Diego, CA, USA).

The target of a further assay is rhTDO (Homo sapiens, UniProt P48775). Nature of the assay: Enzyme-based TDO activity assay (kynurenine absorbance at 492 nm). The settings on record: for inhibition at 50 µM: shown when calculated IC50 >50 μM, read-out: TDO inhibition rate (%) at 50 μM. In kind it is biochemical. The method, then: as §3
Chain of rhTDO (P48775 whole entry): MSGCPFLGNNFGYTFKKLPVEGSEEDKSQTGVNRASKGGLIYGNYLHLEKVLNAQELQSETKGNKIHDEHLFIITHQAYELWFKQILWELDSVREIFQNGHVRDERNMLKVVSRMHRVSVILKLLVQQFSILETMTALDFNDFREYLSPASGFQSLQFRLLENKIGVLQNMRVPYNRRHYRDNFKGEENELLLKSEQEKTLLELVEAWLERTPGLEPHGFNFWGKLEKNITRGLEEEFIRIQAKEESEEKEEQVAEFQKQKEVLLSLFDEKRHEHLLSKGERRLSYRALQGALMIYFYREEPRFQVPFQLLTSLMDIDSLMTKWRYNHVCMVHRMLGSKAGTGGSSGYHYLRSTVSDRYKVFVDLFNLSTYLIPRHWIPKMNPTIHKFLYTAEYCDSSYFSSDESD

Each structure is given as a SMILES string. Read-outs that look alike come from different tables or passages of the source.

Chain of rhIDO1 (P14902 whole entry): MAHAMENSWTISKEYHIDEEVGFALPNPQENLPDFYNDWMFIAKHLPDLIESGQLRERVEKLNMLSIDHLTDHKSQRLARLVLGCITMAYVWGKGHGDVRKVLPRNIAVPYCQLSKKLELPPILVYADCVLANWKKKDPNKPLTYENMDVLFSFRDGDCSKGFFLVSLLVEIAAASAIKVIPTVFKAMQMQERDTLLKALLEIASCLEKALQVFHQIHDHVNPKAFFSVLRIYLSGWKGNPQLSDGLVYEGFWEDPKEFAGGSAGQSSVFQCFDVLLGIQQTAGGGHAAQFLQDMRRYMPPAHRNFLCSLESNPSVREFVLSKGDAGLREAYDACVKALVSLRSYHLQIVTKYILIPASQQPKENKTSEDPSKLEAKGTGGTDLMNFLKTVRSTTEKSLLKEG

The inhibition is the drop in the measured response relative to a control, in per cent. For `CCOC(=O)c1[nH]c2ccc(F)cc2c1C1CC(=O)NC1=O` (racemic) [DX-02-03, (R/S) Ethyl 3-(2,5-dioxopyrrolidin-3-yl)-5-fluoro-1H-indole-2-carboxylate], the inhibition at 50 µM in the assay on MCF7 is 22.1%; in assay [1] it was 21.7%; at rhIDO1 it was 21.6%; on rhTDO, 15.4%.

`CSc1[nH]c2ccc(F)cc2c1C1CC(=O)NC1=O` (racemic) [DX-02-06, (R/S) 3-(5-fluoro-2-(methylthio)-1H-indol-3-yl)pyrrolidine-2,5-dione]: the inhibition at 50 µM in the assay on MCF7 is 19.9%; in assay [1] it was 30.1%; on rhIDO1, 22.6%; at rhTDO, 19.6%.

For `C[S+]([O-])c1[nH]c2ccc(F)cc2c1C1CC(=O)NC1=O` (racemic) [DX-02-07, (R/S) 3-(5-fluoro-2-(methylsulfinyl)-1H-indol-3-yl)pyrrolidine-2,5-dione], the inhibition at 50 µM in the assay on MCF7 is 11%; in assay [1], 15.2%; on rhIDO1, 20.1%; on rhTDO, 13.9%.

What is called IC50 is the concentration that inhibits the measured activity by half. `Cc1cccc2[nH]cc(C(=O)O)c12` [DX-01-02, 4-methyl-1H-indole-3-carboxylic Acid]: the IC50 in the assay with MCF7 (read-out: MCF7 IC50) amounted to 43.1 µM. The inhibition at 50 µM in assay [1] is 39.2%; at rhIDO1, 2.4%; on rhTDO it was 10%.

On to `Cc1ccc2[nH]cc(C(=O)O)c2c1` [DX-01-03, 5-methyl-1H-indole-3-carboxylic Acid], for which the inhibition at 50 µM with MCF7 was 37.6%; in assay [1] it was 26.3%; at rhIDO1, 10.3%; at rhTDO, 10.1%.

Take `O=C(O)c1c[nH]c2ccc([N+](=O)[O-])cc12` [DX-01-04, 5-nitro-1H-indole-3-carboxylic Acid]: the inhibition at 50 µM was 24.3% in the assay on MCF7, 15.1% in assay [1], 3.3% at rhIDO1 and 6% on rhTDO.

Turning to `O=C(O)c1c[nH]c2cc([N+](=O)[O-])ccc12` [DX-01-05, 6-nitro-1H-indole-3-carboxylic Acid], the inhibition at 50 µM in the assay with MCF7 is 29.7%; in assay [1], 5.9%; on rhIDO1, 10.2%; at rhTDO, 10.5%.

`COc1ccc2[nH]cc(C(=O)O)c2c1` [DX-01-06, 5-methoxy-1H-indole-3-carboxylic Acid]: the inhibition at 50 µM in the assay with MCF7 is 25.7%; in assay [1], 11.2%; at rhIDO1, 6.2%; on rhTDO, 8.4%.

For the compound `O=C(O)c1c[nH]c2c(Br)cccc12` [DX-01-07, 7-bromo-1H-indole-3-carboxylic Acid], the inhibition at 50 µM in the assay on MCF7 is 34.6%; in assay [1], 22.2%; at rhIDO1, 7.4%; at rhTDO it was 16.9%.

With `O/N=C/c1c[nH]c2ccccc12` [DX-01-13, (E) 1H-indole-3-carbaldehyde Oxime], the inhibition at 50 µM was 10.1% in the assay on MCF7, 23.1% in assay [1], 19.7% on rhIDO1 and 8.1% on rhTDO.

Take `O/N=C/c1cc2ccccc2[nH]1` [DX-01-16, (E)-1H-indole-2-carbaldehyde Oxime]: the inhibition at 50 µM with MCF7 is 20.9%; in assay [1], 44.5%; on rhTDO, 19.7%. Moreover, the “IDO1 inhibition, in words” value on rhIDO1 is given as “moderate”. Further, at rhIDO1, the IC50 came out at 23.2 µM.

With `ONCc1ccccc1-c1c[nH]cn1` [DX-03-03, N-(2-(1H-imidazol-4-yl)benzyl)hydroxylamine], the inhibition at 50 µM with MCF7 is 22.2%; in assay [1], 5%; at rhIDO1 it was 19.4%; at rhTDO, 11.1%.

As for `O/N=C/c1ccccc1-c1nn[nH]n1` [DX-03-04, (E) 2-(2H-tetrazol-5-yl)benzaldehyde Oxime], the inhibition at 50 µM in the assay on MCF7 is 34.7%; in assay [1], 12.7%; at rhIDO1, 11.9%; at rhTDO it was 20.3%.

Turning to `O/N=C/c1cc(-c2ccccc2C(F)(F)F)ccc1-c1c[nH]cn1` [DX-03-08, (E) 4-(1H-imidazol-4-yl)-2′-(trifluoromethyl)-[1,1′-biphenyl]-3-carbaldehyde Oxime], the inhibition at 50 µM at rhIDO1 was 15.6%; on rhTDO, 11.1%.

With `O/N=C/c1ccc(-c2ccccc2)cc1-c1c[nH]cn1` [DX-03-09, (E) 3-(1H-imidazol-4-yl)-[1,1′-biphenyl]-4-carbaldehyde Oxime], the inhibition at 50 µM is 37.7% with MCF7, 40.5% in assay [1], 5.3% at rhIDO1 and 6.4% at rhTDO.

`FC(F)(F)c1ccc(COc2ccccc2-c2csnn2)cc1` [DX-03-10, 4-(2-((4-(trifluoromethyl)benzyl)oxy)phenyl)-1,2,3-thiadiazole]: the inhibition at 50 µM was 24.7% in the assay on MCF7, 7.6% in assay [1], 13.2% at rhIDO1 and 21.5% at rhTDO.

`NS(=O)(=O)NCCCOc1ccccc1-c1c[nH]cn1` [DX-03-11, N-(3-(2-(1H-imidazol-5-yl)phenoxy)propyl)-aminesulfonamide]: at rhIDO1, the IC50 is 2.4 µM. Further, on rhTDO, the “TDO inhibition, in words” value is given as “marginal” and the inhibition at 50 µM is 38.2%.

For the compound `O=C(NCCCOc1ccccc1-c1cnc[nH]1)Nc1ccc(C(F)(F)F)cc1` [DX-03-13, 1-(3-(2-(1H-imidazol-5-yl)phenoxy)propyl)-3-(4-(trifluoromethyl)phenyl)urea], the IC50 in the assay with MCF7 (unit inferred, read-out: MCF7 IC50 or %) is 21.4 µM; in assay [1] (unit inferred, read-out: H460 IC50 or %) it was 13.8 µM; at rhIDO1 it was 0.5 µM. For the same compound, at rhTDO, the “TDO inhibition, in words” value is “marginal”. Also, the inhibition at 50 µM at rhTDO was 38.9%.

With `COc1ccc(Cl)cc1-c1cn(Cc2ccc(C(F)(F)F)cc2)cn1` [DX-04-01, 4-(5-chloro-2-methoxyphenyl)-1-(4-(trifluoromethyl)benzyl)-1H-imidazole], the IC50 worked out at 8.53 µM in the assay on MCF7 (read-out: MCF7 IC50) and 12 µM in assay [1] (read-out: H460 IC50). The inhibition at 50 µM was 46.2% at rhIDO1 and 26.5% on rhTDO.

In the case of `Oc1ccc(Cl)cc1-c1cn(Cc2ccc(C(F)(F)F)cc2)cn1` [DX-04-02, 4-chloro-2-(1-(4-(trifluoromethyl)benzyl)-1H-imidazol-4-yl)phenol], the IC50 in the assay on MCF7 (read-out: MCF7 IC50) came out at 35.7 µM; in assay [1] (read-out: H460 IC50), 7.69 µM. Further, the inhibition at 50 µM on rhIDO1 is 9.7%; on rhTDO, 18%.

For the compound `Oc1ccc(Cl)cc1-c1cn(Cc2ccc(C(F)(F)F)cc2)nn1` [DX-04-05, 4-chloro-2-(1-(4-(trifluoromethyl)benzyl)-1H-1,2,3-triazol-4-yl)phenol], the IC50 amounted to 42.6 µM in the assay on MCF7 (read-out: MCF7 IC50), 22.9 µM in assay [1] (read-out: H460 IC50) and 23 µM at rhIDO1. Also, the “IDO1 inhibition, in words” value on rhIDO1 is recorded as “moderate”. For the same compound, the inhibition at 50 µM on rhTDO is 22.4%.

As for `CC(=O)O[C@H]1C(=O)[C@@]2(C)[C@H]([C@H](OC(=O)c3ccccc3)[C@]3(O)C[C@H](OC(=O)[C@H](O)[C@@H](NC(=O)c4ccccc4)c4ccccc4)C(C)=C1C3(C)C)[C@]1(OC(C)=O)CO[C@@H]1C[C@@H]2O` [Taxol, reference compound], the IC50 turned out to be 0.015 µM in the assay on MCF7 (read-out: MCF7 IC50) and 0.006 µM in assay [1] (read-out: H460 IC50).
